The text below walks through data of PMC7174318, “The novel E. coli cell division protein, YtfB, plays a role in eukaryotic cell adhesion” (Scientific Reports, 2020).

For this assay, the target named is T1, YtfB (his6-YtfB, C-terminal domain) (Escherichia coli, UniProt P39310).
T1 construct: extracellular C-terminal region, residues 52-212 incl; LysM-like (OapA) domain; His6 tag kept; pETMCSIII-ytfB, expressed in E. coli BL21 AI
The assay can be described thus: surface plasmon resonance, steady state affinity, YtfB immobilised by amine coupling on CM5. The class given is binding. The settings on record: PBS running buffer.

Like-named read-outs stand apart in the source and are kept apart here.

T1 sequence (P39310 52-212): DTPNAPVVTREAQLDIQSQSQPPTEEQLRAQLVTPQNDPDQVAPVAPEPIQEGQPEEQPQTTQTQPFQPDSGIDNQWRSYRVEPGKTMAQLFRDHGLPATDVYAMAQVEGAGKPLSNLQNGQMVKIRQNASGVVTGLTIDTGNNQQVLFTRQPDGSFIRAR

With `CC(=O)N[C@H]1[C@H](O[C@H]2[C@H](O)[C@@H](NC(C)=O)C(O)O[C@@H]2CO)O[C@H](CO)[C@@H](O[C@@H]2O[C@H](CO)[C@@H](O)[C@H](O)[C@H]2NC(C)=O)[C@@H]1O` (stereo partly shown) [4B, GlcNAcβ1-4GlcNAcβ1-4GlcNAc], the Kd (as a rule, the equilibrium constant for the complex coming apart) came to 3300 ± 2130 nM.
The molecule `CC(=O)N[C@H]1[C@H](O[C@H]2[C@H](O)[C@@H](NC(C)=O)[C@H](O[C@H]3[C@H](O)[C@@H](NC(C)=O)C(O)O[C@@H]3CO)O[C@@H]2CO)O[C@H](CO)[C@@H](O[C@@H]2O[C@H](CO)[C@@H](O[C@@H]3O[C@H](CO)[C@@H](O[C@@H]4O[C@H](CO)[C@@H](O)[C@H](O)[C@H]4NC(C)=O)[C@H](O)[C@H]3NC(C)=O)[C@H](O)[C@H]2NC(C)=O)[C@@H]1O` (stereo partly shown) [4D, hexaacetylchitohexaose] showed a Kd of 24.8 ± 5.3 nM.
For `OC[C@H]1O[C@H](O[C@@H]2C(O)O[C@H](CO)[C@@H](O)[C@@H]2O)[C@@H](O)[C@@H](O)[C@@H]1O` (stereo partly drawn) [5C, α1–2mannobiose], the Kd worked out at 43.3 nM.
The same measure, in the same setting: under `OC[C@H]1O[C@H](O[C@H]2[C@H](O)[C@@H](CO)OC(O)[C@H]2O)[C@@H](O)[C@@H](O)[C@@H]1O` (stereo partly drawn) [5D, α1–3mannobiose] stands 345 nM; under `OC[C@H]1O[C@H](O[C@H]2[C@H](O)[C@H](O)C(O)O[C@@H]2CO)[C@@H](O)[C@@H](O)[C@@H]1O` (stereo partly drawn) [5E, α1–4mannobiose], 31.2 nM.
With `OC[C@H]1O[C@H](OC[C@H]2OC(O)[C@@H](O)[C@@H](O)[C@@H]2O)[C@@H](O)[C@@H](O)[C@@H]1O` (stereo partly drawn) [5F, α1–6 mannobiose], the Kd (read-out: KD) stood at 112 nM.
`CC(=O)N[C@H]1[C@H](O[C@H]2[C@H](O)[C@@H](NC(C)=O)C(O)O[C@@H]2CO)O[C@H](CO)[C@@H](O[C@@H]2O[C@H](CO)[C@@H](O[C@@H]3O[C@H](CO)[C@@H](O)[C@H](O)[C@H]3NC(C)=O)[C@H](O)[C@H]2NC(C)=O)[C@@H]1O` (stereo partly shown) [tetraose (N’acetylglucosamine)]: the Kd amounted to 463 ± 71 nM.
